Experimental data published in US10725042B2, “Methods of diagnosing and treating cancer” (Case Western Reserve University, priority 2012, dated 2020).

What was measured:
DLD1/UDG−/− cells [1] = experiment: Colony survival (clonogenic) assay, UDG−/− cells; type: cell-based, human
Experimental: Recombinant virus was grown in 293T cells and subsequently used to infect DLD1 cells. Selection of positively transfected clones was achieved by the addition of G418 to the culture medium. A second infection of transfected clones with Cre-recombinase adenovirus caused excision of the neomycin resistance cassette. Dflag cell line was produced by transfection of UDG expression vector in UDG^−/− cells to restore UDG activity.
Tumor cells (500-2000/dish) were plated and treated with pemetrexed (0-400 nM), 5-fluorouracil (0-20 μM), temozolomide (0-1500 μM), or cisplatin (0-40 μM). After 7 days, surviving colonies were stained with methylene blue for 30 min at room temperature and the colonies containing more than 50 cells were counted to generate survival curves.

DLD1/UDG−/− cells [2] = experiment: Cell cycle analysis, UDG−/− cells; type: cell-based, human; details: pemetrexed 25 nM
Experimental: (§1) For cell cycle analysis, 10^6 cells (DLD1/UDG^+/+ and DLD1/UDG^−/−) were plated in 100-mm tissue culture dishes and exposed to pemetrexed (25 nM). After 6, 24 and 72 h of culture, cells were fixed with 80% methanol and washed with ice-cold 1% BSA/PBS. DNA was stained with 20 μg/mL propidium iodide (Sigma-Aldrich) and 2.5 μg/mL of DNase-free RNase A (Roche). The DNA fluorescence of propidium iodide-stained cells was measured with an Elite ESP flow cytometer/cell sorter (Coulter, Miami, Fla.).

DLD1/UDG+/+ cells = experiment: Cell cycle analysis, UDG+/+ cells; type: cell-based, human; details: pemetrexed 25 nM
Experimental: as §1

UDG+/+ cells = experiment: Replication foci stained with CldU and IdU, UDG+/+ cells; type: cell-based, human; details: pemetrexed 25 nM, n=10 cells
Experimental: DNA replication sites were visualized by incorporation of chlorodeoxyuridine (CldU) and iododeoxyuridine (IdU) into DNA. UDG^−/− and UDG^+/+ cells were labeled with 100 μM CldU (ICN, Irvine, Calif.) or IdU (Sigma Chemical Co., St. Louis, Mo.) for 45 min at different time intervals. Cells were washed with PBS, fixed with cold 70% ethanol, and stored at 4° C. For antibody staining, the ethanol was removed, and 100% methanol was added for 5 min. Cells were washed twice with PBS and incubated with 1.5 M HCl for 30 min to denature the DNA. Cells were washed with PBS, permeabilized with 0.5% Tween 20 in PBS for 5 min, and then incubated in 5% BSA (Sigma Chemical Co.) and in PBS for 20 min to reduce nonspecific binding. Primary antibodies CldU (rat anti-BrdU; Accurate Chemical and Science Co., Westbury, N.Y.) and IdU (mouse anti-BrdU; BD Biosciences) were diluted in 1% BSA buffer, added to the slides, and incubated in a humid environment for 2 hrs. Slides were washed with PBS-Tween 20 and then in a high-salt buffer (200 mM NaCl, 0.2% Tween 20, and 0.2% NP-40 in PBS) for 15 min. The samples were incubated with secondary antibodies for 1 h. Finally, slides were washed with PBSTween 20, mounted with Vectashield antifade mounting medium (Vector Laboratories, Inc., Burlingame, Calif.), and stored at 4° C. […] Fluorescence density of CldU or IdU was quantified by NIH image J software.

H1975 66 shUNG tumors = experiment: H1975 66 shUNG xenografts in NOD-SCID mice; type: in vivo
Experimental: Tumor cells in early passage (5×10^6) were injected into bilateral flanks of female NODSCID mice (6 weeks old). When tumor volumes reached 100 mm3, mice were divided into control (n=4) and treatment (n=6) groups. Mice bearing tumors were treated with pemetrexed (150 mg/kg) or 100 μl sterile PBS (control) by daily intraperitoneal injection (IP) for 5 consecutive days. Tumor measurements were taken every 2 days and response was quantified by tumor volume.

[3] = test system: UNG expression in H460 cells; experiment: UNG protein and transcript expression after acute pemetrexed exposure, H460; type: cell-based, human; details: acute pemetrexed exposure 0-200 nM
Experimental: Protein extracts (25 μg) were resolved by SDS-PAGE and transferred to PVDF membrane (Millipore). Non-specific binding sites were blocked in 5% milk in PBST (1×PBS+0.1% Tween-20). Incubation with primary antibody at 4° C. in 5% BSA/PBS was followed by incubation with HRP-conjugated secondary antibody in 2.5% milk in PBST. Proteins were visualized with ECL reagent (Amersham Corp). Chromatinbound proteins were extracted from formaldehyde (1%) cross-linked cells using Pierce Chromatin Prep Module (Thermo Pierce). Antibody sources: UNG-23936 (39 kDa band, nuclear UNG) and PCNA (Abcam); Tubulin (Calbiochem); γH2AX and Histone-H3 (Millipore); Cleaved PARP (Cell Signaling); and p-chk1, chk1, cdc2, and p-cdc2 (Santa Cruz).
Lung cancer cDNA microarray was purchased from Origene. For cell lines, total RNA was extracted from cells using RNAqueous-4PCR kit (Ambion, Austin, Tex.). Random hexamers (Invitrogen) were used to PCR amplify cDNA from 1 μg of RNA extract. TaqMAN MGB probes (FAMTM dye labeled, Applied Biosystems) for nuclear UNG (UNG2), SMUG1, MBD4, TDG, TYMS and βPol amplified cDNA using 40 cycles of PCR in an ABI 7500 Fast Real-Time PCR System (Applied Biosystems, Foster City, Calif.). Target quantification was achieved after normalization to β-actin amplification as an endogenous control and is presented as relative quantification (RQ) values or log-mean RQ values.

Nc1nc2[nH]cc(CCc3ccc(C(=O)N[C@@H](CCC(=O)O)C(=O)O)cc3)c2c(=O)[nH]1 [pemetrexed]
IC50 (DLD1/UDG−/− cells [1]; Homo sapiens, DLD-1, UDG−/− cells, interpolated from dose-response survival curves, read-out: IC50 value for pemetrexed): 20 nM | sensitivity of UDG−/− cells relative to UDG+/+ cells (DLD1/UDG−/− cells [1]; UDG−/− vs UDG+/+): 10 times | cells arrested in S-phase (DLD1/UDG−/− cells [2]; 6 hr): ~25% | cells arrested in S-phase (DLD1/UDG−/− cells [2]; 24 hr): 36% | cells in S-phase (DLD1/UDG−/− cells [2]; 72 hr): 35% | cells undergone apoptosis (subG1) (DLD1/UDG−/− cells [2]; 72 hr): ~22% | cells transiently arrested in S-phase (DLD1/UDG+/+ cells; 24 hr (untreated 17%)): 21% | cells in the subG1 compartment (DLD1/UDG+/+ cells; 72 hr): 6% | ratio of IdU to CldU (fluorescence density) (UDG+/+ cells; 6-hr sample): 0.7±0.13 | ratio of IdU to CldU (fluorescence density) (UDG+/+ cells; 18-hr sample): 0.9±0.31 | tumors smaller than untreated controls (H1975 66 shUNG tumors; H1975 66 shUNG tumors, day 20, pemetrexed 150 mg/kg IP x5): 55.6% | tumor quadrupling time (H1975 66 shUNG tumors; H1975 shUNG tumors, pemetrexed 150 mg/kg IP, 5 daily injections): 13.67 ± 0.28 days | UNG protein and transcript expression [3]: time- and dosedependent induction
